# Data from patent US8609173B2, “Compositions comprising sweetness enhancers and methods of making them” (Senomyx Inc., priority 2008, dated 2013).
# How the values were obtained:
# External panelists = experiment: Line scale (15-point sucrose equivalence) sensory test, Example 5, sucrose or LSB, pH 7.1; format: in vivo, Human
# Description: (§1) Several types of sensory tests were used to determine the efficacy of 3-(4-amino-2,2-dioxide-1H-benzo[c][1,2,6]thiadiazin-5-yloxy)-2′,2′-dimethyl-N-propylpropanamide 3-(4-amino-2,2-dioxide-1H-benzo[c][1,2,6]thiadiazin-5-yloxy)-2′,2′-dimethyl-N-propylpropanamide in enhancing the sweetness of sucrose. Two types of tests were conducted: • 1) Sensory scaling tests were performed using a 15-point percent sucrose equivalence scale for sweetness in order to evaluate sweetness enhancement 3-(4-amino-2,2-dioxide-1H-benzo[c][1,2,6]thiadiazin-5-yloxy)-2′,2′-dimethyl-N-propylpropanamide 3-(4-amino-2,2-dioxide-1H-benzo[c][1,2,6]thiadiazin-5-yloxy)-2′,2′-dimethyl-N-propylpropanamide in sucrose or in fructose. • 2) Paired comparison tests (2-alternative forced choice difference tests) were used to determine sweetness equivalence for solutions of sucrose vs. 3-(4-amino-2,2-dioxide-1H-benzo[c][1,2,6]thiadiazin-5-yloxy)-2′,2′-dimethyl-N-propylpropanamide 3-(4-amino-2,2-dioxide-1H-benzo[c][1,2,6]thiadiazin-5-yloxy)-2′,2′-dimethyl-N-propylpropanamide or buffer vs. 3-(4-amino-2,2-dioxide-1H-benzo[c][1,2,6]thiadiazin-5-yloxy)-2′,2′-dimethyl-N-propylpropanamide 3-(4-amino-2,2-dioxide-1H-benzo[c][1,2,6]thiadiazin-5-yloxy)-2′,2′-dimethyl-N-propylpropanamide. Stimuli:
# Tests were performed with sucrose or fructose. The sweetener was evaluated with and/or without 3-(4-amino-2,2-dioxide-1H-benzo[c][1,2,6]thiadiazin-5-yloxy)-2′,2′-dimethyl-N-propylpropanamide 3-(4-amino-2,2-dioxide-1H-benzo[c][1,2,6]thiadiazin-5-yloxy)-2′,2′-dimethyl-N-propylpropanamide at the appropriate concentration(s).
# 3-(4-amino-2,2-dioxide-1H-benzo[c][1,2,6]thiadiazin-5-yloxy)-2′,2′-dimethyl-N-propylpropanamide was prepared as a concentrated stock solution in ethanol to ensure dissolution of the 3-(4-amino-2,2-dioxide-1H-benzo[c][1,2,6]thiadiazin-5-yloxy)-2′,2′-dimethyl-N-propylpropanamide. Therefore, all taste solutions contained ethanol in the final solution. Samples without 3-(4-amino-2,2-dioxide-1H-benzo[c][1,2,6]thiadiazin-5-yloxy)-2′,2′-dimethyl-N-propylpropanamide also contained an equivalent concentration of ethanol. For samples involving 3-(4-amino-2,2-dioxide-1H-benzo[c][1,2,6]thiadiazin-5-yloxy)-2′,2′-dimethyl-N-propylpropanamide at 5-10 ppm (up to 28 μM), the final concentration of ethanol was 0.2%; 30-40 μM, 0.4% ethanol; 50 μM, 0.5% ethanol; and 100 μM, 1% ethanol.
# Taste samples were also prepared in low sodium phosphate buffer (pH 7.1; “LSB”) lacking sucrose to evaluate the taste of 3-(4-amino-2,2-dioxide-1H-benzo[c][1,2,6]thiadiazin-5-yloxy)-2′,2′-dimethyl-N-propylpropanamide alone. Low sodium phosphate buffer consists of 0.3 mM KCl, 0.5 mM Na2HPO4, and 0.175 mM KH2PO4.
# In scaling test situations, the samples were rated on a 15-point scale for sweetness, ranging from 0=0% sucrose to 15=15% sucrose. To evaluate attributes other than sweetness, references are used for training and are prepared according to the table below. Note that each reference was given a score of 5 on the 15-point scale.
# External panelists were used for the tests. The exact number of panelists is reported with test results. Subjects were instructed not to eat or drink anything (except water) for at least 1 hour prior to the test.
# Panelists rinsed their mouths with water prior to starting any test. Samples were presented to panelists in a randomized, counterbalanced order. Panelists rinsed with water and had up to a 1 minute delay to clear the mouth of any tastes after each evaluation. Two replicates of each test were performed, unless otherwise noted.
# In scaling tests, panelists rate samples monadically for the attributes listed above (see Stimuli). In paired comparison tests, panelists taste pairs of solutions and indicate which sample is perceived to be sweeter.
# Attributes of interest are reported for each scaling taste test.
# Panelists rinsed their mouths with water prior to starting any test. Samples were presented to panelists in a randomized, counterbalanced order. […]
# Panelists = experiment: Paired comparison taste test, Example 7, sucrose or fructose solutions; format: in vivo, Human
# Description: as §1
# Panelists evaluated two solutions in a paired comparison taste test procedure. They were instructed to select the sweeter of the two samples. They were also asked to comment on how difficult it was to tell the difference in sweetness between both samples and if any off tastes were perceived.
# Panelists evaluated two solutions in a paired comparison taste test procedure and were instructed to select the sweeter of the two samples.
compound,measurement,setting,value
"CCCNC(=O)C(C)(C)COc1cccc2c1C(N)=NS(=O)(=O)N2 [3-(4-amino-2,2-dioxide-1H-benzo[c][1,2,6]thiadiazin-5-yloxy)-2′,2′-dimethyl-N-propylpropanamide]",off tastes,External panelists; 25.0 μM (8.9 ppm) compound on its own,no significant off tastes
same,Average Sweetness,"External panelists; 25 μM (8.9 ppm) compound on its own, pH 7, n = 30",0.6
same,Sweetness vs sucrose solutions (conclusion),"External panelists; 25.0 μM (8.9 ppm) compound on its own, p>0.10",not significantly different in sweetness than 0% sucrose
same,Average Bitterness,"External panelists; 25 μM compound on its own, n = 30",0.2
same,Average Sweetness,"External panelists; 50 μM (17.7 ppm) compound on its own in LSB, pH 7.1, n = 14",1.3
same,bitter off tastes,"External panelists; 50 μM compound in LSB, pH 7.1",no significant bitter off tastes
same,off tastes,External panelists; 50 μM compound on its own in LSB,no significant off tastes
same,Average Bitterness,"External panelists; 1% Sucrose + 5 ppm (14.11 μM) compound, n = 30",0.4
same,Average Sweetness,"External panelists; 1% Sucrose + 5 ppm (14.11 μM) compound, pH 7.1, n = 30",2.5
same,Sweetness vs sucrose solutions (conclusion),"External panelists; 1% sucrose + 5 ppm compound, p>0.10",not significantly different in sweetness than 2% sucrose
same,off tastes,"External panelists; 1-10 ppm compound in 6% sucrose, LSB, pH 7.1",no significant off tastes
same,Average Sweetness,"External panelists; 2% Sucrose + 25 μM (8.9 ppm) compound, pH 7.1, n = 28",5.6
same,Average Bitterness,"External panelists; 2% Sucrose + 25 μM compound, n = 28",0.3
same,Average Bitterness,"External panelists; 2% Sucrose + 5 ppm (14.11 μM) compound, n = 30",0.2
same,Average Sweetness,"External panelists; 2% Sucrose + 5 ppm (14.11 μM) compound, pH 7.1, n = 30",4.6
same,Sweetness vs sucrose solutions (conclusion),External panelists; 2% sucrose + 5 ppm compound,not significantly different in sweetness than 4% sucrose
same,Sweetness vs sucrose solutions (conclusion),"External panelists; 2% sucrose + 8.9 ppm compound, p>0.10",not significantly different in sweetness than 6% sucrose
same,Average Sweetness,"External panelists; 4% Sucrose + 25 μM (8.9 ppm) compound, pH 7.1, n = 28",8.3
same,Average Bitterness,"External panelists; 4% Sucrose + 25 μM compound, n = 28",0.3
same,Average Bitterness,"External panelists; 4% Sucrose + 5 ppm (14.11 μM) compound, n = 30",0.2
same,Average Sweetness,"External panelists; 4% Sucrose + 5 ppm (14.11 μM) compound, pH 7.1, n = 30",8.1
same,Sweetness vs sucrose solutions (conclusion),"External panelists; 4% sucrose + 5 ppm compound, p>0.10",not significantly different in sweetness than 8% sucrose
same,Sweetness vs sucrose solutions (conclusion),"External panelists; 4% sucrose + 8.9 ppm compound, p>0.10",not significantly different in sweetness than 8% sucrose
same,off tastes,"External panelists; 5 ppm compound in 1-6% sucrose, LSB, pH 7.1",no significant off tastes
same,Average Sweetness,"External panelists; 6% Sucrose + 25 μM (8.9 ppm) compound, pH 7.1, n = 24",10.6
same,Sweetness vs sucrose solutions (conclusion),"External panelists; 6% Sucrose + 25 μM compound, p>0.10",not significantly different in sweetness than 10% or 12% sucrose
same,Average Bitterness,"External panelists; 6% Sucrose + 25 μM compound, pH 7.1, n = 24",0.1
same,Average Sweetness,"External panelists; 6% Sucrose + 50 μM (17.7 ppm) compound, pH 7.1, n = 15",9.9
same,Sweetness vs sucrose solutions (conclusion),"External panelists; 6% Sucrose + 50 μM compound, p>0.10",not significantly different in sweetness compared to 10% or 12% Sucrose
same,Average Bitterness,"External panelists; 6% Sucrose + 50 μM compound, pH 7.1, n = 15",0.2
same,Average Bitterness,"External panelists; 6% Sucrose + 1 ppm (2.82 μM) compound, n = 30",0.7
same,Average Sweetness,"External panelists; 6% Sucrose + 1 ppm (2.82 μM) compound, pH 7.1, n = 30",7.5
same,Average Bitterness,"External panelists; 6% Sucrose + 2 ppm (5.64 μM) compound, n = 30",0.4
same,Average Sweetness,"External panelists; 6% Sucrose + 2 ppm (5.64 μM) compound, pH 7.1, n = 30",8.0
same,Average Bitterness,"External panelists; 6% Sucrose + 4 ppm (11.29 μM) compound, n = 30",0.4
same,Average Sweetness,"External panelists; 6% Sucrose + 4 ppm (11.29 μM) compound, pH 7.1, n = 30",10.1
same,Average Bitterness,"External panelists; 6% Sucrose + 5 ppm (14.11 μM) compound, n = 30",0.4
same,Average Sweetness,"External panelists; 6% Sucrose + 5 ppm (14.11 μM) compound, pH 7.1, n = 30",10.2
same,Average Bitterness,"External panelists; 6% Sucrose + 7 ppm (19.75 μM) compound, n = 30",0.3
same,Average Sweetness,"External panelists; 6% Sucrose + 7 ppm (19.75 μM) compound, pH 7.1, n = 30",10.3
same,Sweetness vs sucrose solutions (conclusion),"External panelists; 6% Sucrose + 7 ppm compound, p>0.10",not significantly different than 10% or 12% sucrose
same,Average Bitterness,"External panelists; 6% Sucrose + 10 ppm (28.22 μM) compound, n = 30",0.6
same,Average Sweetness,"External panelists; 6% Sucrose + 10 ppm (28.22 μM) compound, pH 7.1, n = 30",10.9
same,Sweetness vs sucrose solutions (conclusion),"External panelists; 6% Sucrose + 10 ppm compound, p>0.10",not significantly different than 10% or 12% sucrose
same,off tastes,External panelists; 6% sucrose + 25 μM compound,no significant off tastes
same,Sweetness vs sucrose solutions (conclusion),"External panelists; 6% sucrose + 4 ppm compound, p>0.10",not significantly different than 10% sucrose
same,off tastes,"External panelists; 8.9 ppm compound in 2-4% sucrose, LSB, pH 7.1",no significant off tastes
same,"Sample selected as more sweet by panelists, Total","Panelists; 28 μM (9.9 ppm) compound chosen, vs 1% Sucrose, n = 32",4
same,Sweetness comparison (conclusion),Panelists; 28 μM compound vs 1% sucrose,1% sucrose was significantly sweeter
same,"Sample selected as sweeter by panelists, Test 1","Panelists; 6% Fructose + 25 μM (8.9 ppm) compound chosen, vs 6% Fructose, N = 25",20
same,"Sample selected as more sweet by panelists, Test 1","Panelists; 6% Fructose + 25 μM (8.9 ppm) compound chosen, vs 7% Fructose, N = 25",12
same,Sweetness comparison (conclusion),"Panelists; 6% fructose + 25 μM compound vs 6% fructose, p<0.05",significantly sweeter than 6% fructose
same,Sweetness comparison (conclusion),Panelists; 6% fructose + 25 μM compound vs 7% fructose,no significant difference in sweetness
